PubChem BioAssay AID1259408 (Genetic Toxicology Data Bank (GENE-TOX), 2018)
The source made the active and inactive calls. The rule behind the calls is not given here.

Tested on: GENE-TOX genotoxicity assays, various organisms and cells
Experiment: GENE-TOX mutagenicity studies
Settings: for call: Assay Type: In vivo carcinogenicity studies
[1] = Species/Cell Type: Human, Assay Type: Sister-chromatid exchange (SCE) in vitro, Assay Code: SC1+D, Dose Response: With dose response, Evaluation Type: Evaluation B (Post-1980)
[2] = Species/Cell Type: Salmonella typhimurium (one or more of the five standard strains: TA98, TA100, TA1535, TA1537, and TA1538), Assay Type: Histidine reverse gene mutation, Ames assay, Assay Code: SAL+, Evaluation Type: Evaluation A (Pre-1980)
[3] = Species/Cell Type: Salmonella typhimurium (one or more of the five standard strains: TA98, TA100, TA1535, TA1537, and TA1538), Assay Type: Histidine reverse gene mutation, Ames assay, Assay Code: SAL+*, Activation: With metabolic activation, Evaluation Type: Evaluation A (Pre-1980)

In the case of CC(C)OC(=O)Nc1cccc(Cl)c1, the mutagenic call (Species/Cell Type: Hordeum vulgare (barley), Assay Type: Chromosome aberrations, Assay Code: HOC+, Evaluation Type: Evaluation A (Pre-1980)) is reported as “active; positive”, the mutagenic call (Species/Cell Type: Mammalian polychromatic erythrocytes, Assay Type: Micronucleus test, chromosome aberrations, Assay Code: MNTT, Evaluation Type: Evaluation A (Pre-1980)) is reported as “no conclusion” and the mutagenic call (Species/Cell Type: Mouse, Sex: Male, Assay Type: Sperm morphology, Assay Code: SPI-, Evaluation Type: Evaluation A (Pre-1980)) is reported as “inactive; negative”. For the same compound, the mutagenic call (Species/Cell Type: Nonhuman, Assay Type: Sister-chromatid exchange (SCE) in vitro, Assay Code: SC2+, Evaluation Type: Evaluation B (Post-1980)) was “active; positive”.
In the case of Nc1ccccc1O, the mutagenic call [1] is reported as “active; positive”.
With CN1C[C@H](C(=O)N[C@]2(C)O[C@@]3(O)[C@@H]4CCCN4C(=O)[C@H](Cc4ccccc4)N3C2=O)C=C2c3cccc4[nH]cc(c34)C[C@H]21 the mutagenic call (Species/Cell Type: Rodents, Sex: Male, Assay Type: Dominant lethal test, Assay Code: DLT+, Evaluation Type: Evaluation A (Pre-1980)) was “active; positive”.
For S=P(N1CC1)(N1CC1)N1CC1, the mutagenic call (Species/Cell Type: Drosophila melanogaster, Assay Type: Sex-linked recessive lethal gene mutation, Assay Code: SRL+, Evaluation Type: Evaluation A (Pre-1980)) was “active; positive”, the mutagenic call (Species/Cell Type: Human lymphocytes or leukocytes, Assay Type: Chromosome aberrations in vitro, Assay Code: CY7+, Evaluation Type: Evaluation A (Pre-1980)) was “active; positive” and the mutagenic call (Species/Cell Type: Human lymphocytes, Assay Type: Sister-chromatid exchange (SCE) in vitro, Assay Code: SCL+D, Dose Response: With dose response, Evaluation Type: Evaluation B (Post-1980)) was “active; positive”. For the same compound, the mutagenic call [1] was “active; positive”, the mutagenic call (Species/Cell Type: Mammalian polychromatic erythrocytes, Assay Type: Micronucleus test, chromosome aberrations, Assay Code: MNT+, Evaluation Type: Evaluation A (Pre-1980)) was “active; positive” and the mutagenic call (Species/Cell Type: Mouse (C3H/10T1/2) cells, Assay Type: Cell transformation, Assay Code: CTH+, Evaluation Type: Evaluation A (Pre-1980)) was “active; positive”. For the same compound, the mutagenic call (Species/Cell Type: Mouse, Sex: Male, Assay Type: Heritable translocation test, chromosome aberrations, Assay Code: HTT+, Evaluation Type: Evaluation A (Pre-1980)) was “active; positive”, the mutagenic call (Species/Cell Type: Mouse, Sex: Male, Assay Type: Sperm morphology, Assay Code: SPI+, Evaluation Type: Evaluation A (Pre-1980)) was “active; positive” and the mutagenic call (Species/Cell Type: Nonhuman bone marrow, Assay Type: Chromosome aberrations, in vivo, Assay Code: CY#+D, Dose Response: With dose response, Evaluation Type: Evaluation A (Pre-1980)) was “active; positive”. The mutagenic call (Species/Cell Type: Nonhuman, Assay Type: Chromosome aberrations in vitro, Assay Code: CY&+, Evaluation Type: Evaluation A (Pre-1980)) was “active; positive”, the call (Species/Cell Type: Nonhuman, Assay Code: CCG+, Evaluation Type: Evaluation A (Pre-1980)) was “active; positive” and the mutagenic call (Species/Cell Type: Nonhuman, Assay Type: Sister-chromatid exchange (SCE) in vitro, Assay Code: SC2+D, Dose Response: With dose response, Evaluation Type: Evaluation A (Pre-1980)) was “active; positive”. The mutagenic call (Species/Cell Type: Rodents, Sex: Male, Assay Type: Dominant lethal test, Assay Code: DLT+D, Dose Response: With dose response, Evaluation Type: Evaluation A (Pre-1980)) was “active; positive”, the mutagenic call (Species/Cell Type: Saccharomyces cerevisiae, Assay Type: Mitotic recombination or gene conversion, Assay Code: YEC+, Evaluation Type: Evaluation A (Pre-1980)) was “active; positive” and the mutagenic call [2] was “active; positive”. The mutagenic call (Species/Cell Type: Salmonella typhimurium, Assay Type: Forward and reverse gene mutation, host-mediated assay, Assay Code: HMA+, Evaluation Type: Evaluation A (Pre-1980)) was “active; positive” and the mutagenic call (Species/Cell Type: Vicia faba, Assay Type: Chromosome aberrations, Assay Code: VIC+D, Dose Response: With dose response, Evaluation Type: Evaluation A (Pre-1980)) was “active; positive”.
C=C/C=C/C=C/C#CC#C/C=C/C was tested, and the mutagenic call (Species/Cell Type: Nonhuman, Assay Type: Sister-chromatid exchange (SCE) in vitro, Assay Code: SC2T, Evaluation Type: Evaluation B (Post-1980)) was “no conclusion”.
With CNN the mutagenic call (Species/Cell Type: Escherichia coli WP2 UVRA, Assay Type: Tryptophan reverse gene mutation, Assay Code: WPU+, Evaluation Type: Evaluation A (Pre-1980)) was “active; positive”, the mutagenic call (Species/Cell Type: Human diploid fibroblasts, Assay Type: Unscheduled DNA synthesis (UDS) in vitro, DNA effects, Assay Code: UDH-, Evaluation Type: Evaluation A (Pre-1980)) was “inactive; negative” and the call (Species/Cell Type: Nonhuman, Assay Code: CCG+L, Evaluation Type: Evaluation A (Pre-1980)) was “active; positive”. For the same compound, the mutagenic call (Species/Cell Type: Rodents, Sex: Male, Assay Type: Dominant lethal test, Assay Code: DLT-, Evaluation Type: Evaluation A (Pre-1980)) was “inactive; negative”, the mutagenic call (Species/Cell Type: Saccharomyces cerevisiae, Assay Type: Mitotic recombination or gene conversion, Assay Code: YEC-, Evaluation Type: Evaluation A (Pre-1980)) was “inactive; negative” and the mutagenic call [3] was “active; positive”.
Cc1c2c(c3ccc4ccccc4c3c1C)CCC2=O was tested, and the mutagenic call [3] was “active; positive”.
Oc1ccc2c(c1)cc1ccc3cccc4ccc2c1c34 was tested, and the mutagenic call (Species/Cell Type: Chinese hamster lung (V79) cells, Assay Type: Forward gene mutation at the HPRT or ouabain locus, Assay Code: V79-*, Activation: With metabolic activation, Evaluation Type: Evaluation A (Pre-1980)) was “inactive; negative”, the call (Species/Cell Type: Nonhuman, Assay Code: CCGT, Evaluation Type: Evaluation A (Pre-1980)) was “no conclusion” and the mutagenic call (Species/Cell Type: Salmonella typhimurium (one or more of the five standard strains: TA98, TA100, TA1535, TA1537, and TA1538), Assay Type: Histidine reverse gene mutation, Ames assay, Assay Code: SALT, Evaluation Type: Evaluation A (Pre-1980)) was “no conclusion”.
With O=[N+]([O-])c1ccc(/C=C/c2cccc(CO)n2)o1 the mutagenic call (Species/Cell Type: Human diploid fibroblasts, Assay Type: Unscheduled DNA synthesis (UDS) in vitro, DNA effects, Assay Code: UDH+, Evaluation Type: Evaluation A (Pre-1980)) was “active; positive”.
O=c1ccc2cc3ccoc3cc2o1 was tested, and the mutagenic call (Species/Cell Type: Mammalian cell culture, nonhuman, Assay Type: Micronucleus test in vitro, chromosome aberrations, Assay Code: MN&+, Evaluation Type: Evaluation A (Pre-1980)) was “active; positive” and the mutagenic call (Species/Cell Type: Saccharomyces cerevisiae, Assay Type: Reverse gene mutation, Assay Code: YERT, Evaluation Type: Evaluation A (Pre-1980)) was “no conclusion”.
N#[N+]c1nc[nH]c1C(N)=O was tested, and the mutagenic call [2] was “active; positive”.
